Patent US9695155B2, “Herbicidal substituted pyrimidinyloxy benzene compounds” (E. I. DU PONT DE NEMOURS AND COMPANY, priority 2013, dated 2017)

Key:
barnyardgrass = test: Test E preemergence; type: in vivo, Echinochloa crus-galli; details: preemergence; for Barnyardgrass plant response rating: scale 0 to 100 (0 no effect, 100 complete control); for Plant response rating, Barnyardgrass: 125 g ai/ha, scale 0 to 100, 0 no effect, 100 complete control
In short: (§1)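 Response was scored visually on a 0-100 scale (100 = complete control) versus controls after 14 to 21 days in the greenhouse. Test chemicals, formulated with surfactant in a non-phytotoxic solvent mixture, had been applied preemergence to seeds in silt loam soil or postemergence to 1- to 4-leaf plants in potting medium.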

johnsongrass = test: Test E preemergence; type: in vivo, Sorghum halepense; details: for Johnsongrass plant response rating: scale 0 to 100 (0 no effect, 100 complete control); for Plant response rating, Johnsongrass: 125 g ai/ha, scale 0 to 100, 0 no effect, 100 complete control
In short: as §1

arrowleaf sida = test: Test E preemergence; type: in vivo, Sida rhombifolia; details: preemergence; for Arrowleaf Sida plant response rating: scale 0 to 100 (0 no effect, 100 complete control); for Plant response rating, Arrowleaf Sida: 125 g ai/ha, scale 0 to 100, 0 no effect, 100 complete control
In short: as §1

dayflower = test: Test E preemergence; type: in vivo, Commelina virginica; details: for Dayflower, VA plant response rating: scale 0 to 100 (0 no effect, 100 complete control); for Plant response rating, Dayflower, VA: 125 g ai/ha, scale 0 to 100, 0 no effect, 100 complete control
In short: as §1

morningglory = test: Test E preemergence; type: in vivo, Ipomoea coccinea; details: for Morningglory plant response rating: scale 0 to 100 (0 no effect, 100 complete control); for Plant response rating, Morningglory: 125 g ai/ha, scale 0 to 100, 0 no effect, 100 complete control
In short: as §1

sedge, umbrella = test: Test C flooded paddy test; type: in vivo, Cyperus difformis; details: Flood, scale 0 to 100 (0 no effect, 100 complete control), 13 to 15 days
In short: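 Flooded 3 cm over soil; compound into paddy water; depth kept constant. Greenhouse 13–15 d.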

fall panicum = test: Test E preemergence; type: in vivo, Panicum dichotomiflorum; details: for Panicum, Fall plant response rating: scale 0 to 100 (0 no effect, 100 complete control); for Plant response rating, Panicum, Fall: 125 g ai/ha, scale 0 to 100, 0 no effect, 100 complete control
In short: as §1

soybean = test: Test E preemergence; type: in vivo, Glycine max; details: for Soybean plant response rating: scale 0 to 100 (0 no effect, 100 complete control); for Plant response rating, Soybean: 125 g ai/ha, scale 0 to 100, 0 no effect, 100 complete control
In short: as §1

palmer pigweed = test: Test E preemergence; type: in vivo, Amaranthus palmeri; details: for Pigweed, Palmer plant response rating: scale 0 to 100 (0 no effect, 100 complete control); for Plant response rating, Pigweed, Palmer: 125 g ai/ha, scale 0 to 100, 0 no effect, 100 complete control
In short: as §1

ragweed = test: Test E preemergence; type: in vivo, Ambrosia elatior; details: for Ragweed plant response rating: scale 0 to 100 (0 no effect, 100 complete control); for Plant response rating, Ragweed: 125 g ai/ha, scale 0 to 100, 0 no effect, 100 complete control
In short: as §1

goosegrass = test: Test E preemergence; type: in vivo, Eleusine indica; details: for Goosegrass plant response rating: scale 0 to 100 (0 no effect, 100 complete control); for Plant response rating, Goosegrass: 125 g ai/ha, scale 0 to 100, 0 no effect, 100 complete control
In short: as §1

Italian ryegrass [1] = test: Test E preemergence; type: in vivo, Lolium multiflorum; details: for Ryegrass, Italian plant response rating: scale 0 to 100 (0 no effect, 100 complete control); for Plant response rating, Ryegrass, Italian: 125 g ai/ha, scale 0 to 100, 0 no effect, 100 complete control
In short: as §1

galium = test: Test A postemergence; type: in vivo, Galium aparine; details: for Galium plant response rating: 125 g ai/ha
In short: (§2)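 Compounds in non-phytotoxic solvent with surfactant applied as soil spray preemergence, or postemergence to plants 2-10 cm at one- to two-leaf stage, in loam/sand. After approximately 10 days in greenhouse, injury rated visually versus untreated controls, 0 (no effect) to 100 (complete control).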

Italian ryegrass [2] = test: Test A preemergence; type: in vivo, Lolium multiflorum; details: 0 to 100 scale where 0 is no effect and 100 is complete control
In short: as §2

[3] = 0 to 100 scale where 0 is no effect and 100 is complete control

SMILES: FC(F)c1cccc(Oc2ncc(Cl)cn2)c1-n1cc(Br)cn1 [Compound 194, 2-[2-(4-bromo-1H-pyrazol-1-yl)-3-(difluoromethyl)phenoxy]-5-chloropyrimidine]
- Barnyardgrass plant response rating (barnyardgrass; 31 g ai/ha): 0
- Barnyardgrass plant response rating (barnyardgrass; 62 g ai/ha): 0
- Johnsongrass plant response rating (johnsongrass; 31 g ai/ha): 0
- Johnsongrass plant response rating (johnsongrass; 62 g ai/ha): 50
- Arrowleaf Sida plant response rating (arrowleaf sida; 31 g ai/ha): 35
- Arrowleaf Sida plant response rating (arrowleaf sida; 62 g ai/ha): 100
- Dayflower, VA plant response rating (dayflower; 31 g ai/ha): 0
- Dayflower, VA plant response rating (dayflower; 62 g ai/ha): 40
- Morningglory plant response rating (morningglory; 31 g ai/ha): 0
- Morningglory plant response rating (morningglory; 62 g ai/ha): 0
- Plant response rating, Sedge, Umbrella (sedge, umbrella; 31 g ai/ha): 50
- Plant response rating, Sedge, Umbrella (sedge, umbrella; 62 g ai/ha): 75
- Plant response rating, Sedge, Umbrella (sedge, umbrella; 125 g ai/ha): 85
- Plant response rating, Sedge, Umbrella (sedge, umbrella; 250 g ai/ha): 95
- Panicum, Fall plant response rating (fall panicum; 31 g ai/ha): 80
- Panicum, Fall plant response rating (fall panicum; 62 g ai/ha): 100
- Soybean plant response rating (soybean; 31 g ai/ha): 0
- Soybean plant response rating (soybean; 62 g ai/ha): 20
- Pigweed, Palmer plant response rating (palmer pigweed; 31 g ai/ha): 98
- Pigweed, Palmer plant response rating (palmer pigweed; 62 g ai/ha): 100
- Ragweed plant response rating (ragweed; 31 g ai/ha): 0
- Ragweed plant response rating (ragweed; 62 g ai/ha): 20
- Goosegrass plant response rating (goosegrass; 31 g ai/ha): 40
- Goosegrass plant response rating (goosegrass; 62 g ai/ha): 75
- Ryegrass, Italian plant response rating (Italian ryegrass [1]; 31 g ai/ha): 0
- Ryegrass, Italian plant response rating (Italian ryegrass [1]; 62 g ai/ha): 0

SMILES: N#Cc1cnn(-c2c(CF)cccc2Oc2ncc(F)cn2)c1 [Compound 151]
- Barnyardgrass plant response rating (barnyardgrass; 16 g ai/ha): 0
- Barnyardgrass plant response rating (barnyardgrass; 31 g ai/ha): 20
- Barnyardgrass plant response rating (barnyardgrass; 62 g ai/ha): 10
- Plant response rating, Barnyardgrass (barnyardgrass): 75
- Johnsongrass plant response rating (johnsongrass; 31 g ai/ha): 0
- Johnsongrass plant response rating (johnsongrass; 62 g ai/ha): 35
- Plant response rating, Johnsongrass (johnsongrass): 70
- Arrowleaf Sida plant response rating (arrowleaf sida; 16 g ai/ha): 60
- Arrowleaf Sida plant response rating (arrowleaf sida; 31 g ai/ha): 80
- Arrowleaf Sida plant response rating (arrowleaf sida; 62 g ai/ha): 100
- Plant response rating, Arrowleaf Sida (arrowleaf sida): 100
- Dayflower, VA plant response rating (dayflower; 16 g ai/ha): 0
- Dayflower, VA plant response rating (dayflower; 31 g ai/ha): 10
- Dayflower, VA plant response rating (dayflower; 62 g ai/ha): 65
- Plant response rating, Dayflower, VA (dayflower): 85
- Morningglory plant response rating (morningglory; 31 g ai/ha): 0
- Morningglory plant response rating (morningglory; 62 g ai/ha): 0
- Plant response rating, Morningglory (morningglory): 0
- Panicum, Fall plant response rating (fall panicum; 31 g ai/ha): 60
- Panicum, Fall plant response rating (fall panicum; 62 g ai/ha): 100
- Plant response rating, Panicum, Fall (fall panicum): 98
- Soybean plant response rating (soybean; 31 g ai/ha): 30
- Plant response rating, Soybean (soybean): 75
- Pigweed, Palmer plant response rating (palmer pigweed; 31 g ai/ha): 100
- Pigweed, Palmer plant response rating (palmer pigweed; 62 g ai/ha): 100
- Plant response rating, Pigweed, Palmer (palmer pigweed): 100
- Ragweed plant response rating (ragweed; 31 g ai/ha): 90
- Ragweed plant response rating (ragweed; 62 g ai/ha): 95
- Plant response rating, Ragweed (ragweed): 100
- Goosegrass plant response rating (goosegrass; 31 g ai/ha): 0
- Goosegrass plant response rating (goosegrass; 62 g ai/ha): 70
- Plant response rating, Goosegrass (goosegrass): 85
- Plant response rating, Galium (galium; 31 g ai/ha, 0 to 100 scale, 0 no effect, 100 complete control): 10
- Galium plant response rating (galium; [3]): 40
- Ryegrass, Italian plant response rating (Italian ryegrass [1]; 31 g ai/ha): 10
- Ryegrass, Italian plant response rating (Italian ryegrass [1]; 62 g ai/ha): 10
- Plant response rating, Ryegrass, Italian (Italian ryegrass [1]): 65
- Plant response rating, Ryegrass, Italian (Italian ryegrass [2]; 31 g ai/ha, visual, approximately 10 days): 0
- Plant response rating, Ryegrass, Italian (Italian ryegrass [2]; 125 g ai/ha): 0

SMILES: FC(F)(F)COc1cnn(-c2ccccc2Oc2ncc(Cl)cn2)c1 [Compound 138, 5-chloro-2-[2-[4-(2,2,2-trifluoroethoxy)-1H-pyrazol-1-yl]phenoxy]pyrimidine]
- Barnyardgrass plant response rating (barnyardgrass; 16 g ai/ha): 0
- Barnyardgrass plant response rating (barnyardgrass; 31 g ai/ha): 0
- Barnyardgrass plant response rating (barnyardgrass; 62 g ai/ha): 15
- Plant response rating, Barnyardgrass (barnyardgrass): 60
- Johnsongrass plant response rating (johnsongrass; 16 g ai/ha): 0
- Johnsongrass plant response rating (johnsongrass; 31 g ai/ha): 0
- Johnsongrass plant response rating (johnsongrass; 62 g ai/ha): 35
- Plant response rating, Johnsongrass (johnsongrass): 40
- Arrowleaf Sida plant response rating (arrowleaf sida; 16 g ai/ha): 0
- Arrowleaf Sida plant response rating (arrowleaf sida; 31 g ai/ha): 0
- Arrowleaf Sida plant response rating (arrowleaf sida; 62 g ai/ha): 40
- Plant response rating, Arrowleaf Sida (arrowleaf sida): 100
- Dayflower, VA plant response rating (dayflower; 16 g ai/ha): 0
- Dayflower, VA plant response rating (dayflower; 31 g ai/ha): 5
- Dayflower, VA plant response rating (dayflower; 62 g ai/ha): 30
- Plant response rating, Dayflower, VA (dayflower): 40
- Morningglory plant response rating (morningglory; 16 g ai/ha): 0
- Morningglory plant response rating (morningglory; 31 g ai/ha): 0
- Morningglory plant response rating (morningglory; 62 g ai/ha): 0
- Plant response rating, Morningglory (morningglory): 40
- Panicum, Fall plant response rating (fall panicum; 16 g ai/ha): 0
- Panicum, Fall plant response rating (fall panicum; 31 g ai/ha): 25
- Panicum, Fall plant response rating (fall panicum; 62 g ai/ha): 100
- Plant response rating, Panicum, Fall (fall panicum): 100
- Soybean plant response rating (soybean; 16 g ai/ha): 0
- Soybean plant response rating (soybean; 31 g ai/ha): 0
- Plant response rating, Soybean (soybean): 35
- Pigweed, Palmer plant response rating (palmer pigweed; 16 g ai/ha): 0
- Pigweed, Palmer plant response rating (palmer pigweed; 31 g ai/ha): 70
- Pigweed, Palmer plant response rating (palmer pigweed; 62 g ai/ha): 75
- Plant response rating, Pigweed, Palmer (palmer pigweed): 70
- Ragweed plant response rating (ragweed; 16 g ai/ha): 0
- Ragweed plant response rating (ragweed; 31 g ai/ha): 0
- Ragweed plant response rating (ragweed; 62 g ai/ha): 0
- Plant response rating, Ragweed (ragweed): 0
- Goosegrass plant response rating (goosegrass; 16 g ai/ha): 10
- Goosegrass plant response rating (goosegrass; 31 g ai/ha): 30
- Goosegrass plant response rating (goosegrass; 62 g ai/ha): 50
- Plant response rating, Goosegrass (goosegrass): 70
- Galium plant response rating (galium; [3]): 90
- Plant response rating, Galium (galium; 500 g ai/ha, 0 to 100 scale where 0 is no effect and 100 is complete control): 100
- Ryegrass, Italian plant response rating (Italian ryegrass [1]; 16 g ai/ha): 0
- Ryegrass, Italian plant response rating (Italian ryegrass [1]; 31 g ai/ha): 0
- Ryegrass, Italian plant response rating (Italian ryegrass [1]; 62 g ai/ha): 0
- Plant response rating, Ryegrass, Italian (Italian ryegrass [1]): 20
- Plant response rating, Ryegrass, Italian (Italian ryegrass [2]; 125 g ai/ha): 0
- Ryegrass, Italian plant response rating (Italian ryegrass [2]; 500 g ai/ha): 50
